Converted amounts (≈) assume the structure as drawn. Structures can show the parent of a compound that is named as a salt.

Data set [1] is described as follows: Dissolution rate of finely powdered substance under USP XXI conditions (apparatus 2) in artificial intestinal juice. To be noted: pH 7.
A short description of another data set: physchem. Particulars: water.

Regarding `COc1cccc([C@@]2(O)CCCC[C@@H]2CN(C)C)c1` (racemic) [I-Hydrochlorid, 1e-(m-Methoxyphenyl)-2e-dimethylaminomethyl-cyclohexan-1-(a)-ol], the “gelöst / in Lösung gegangen nach 2 Minuten” value in data set [1] is > 97%. In addition, the solubility in the data set “physchem” stood at 298 mg/mL.

For `O=C(O)Cc1ccccc1Nc1c(Cl)cccc1Cl` [II-Natriumsalz, 2-(2ʹ,6ʹ-Dichloranilino)-phenylessigsäure], in the data set “Solubility in water”, the solubility was ~30 mg/mL (≈ 101 mM).

By solubility is commonly meant the dissolved amount per volume that the medium holds. High values mean a readily soluble substance, low ones a poorly soluble substance.

Source of the values: patent publication EP0256258A2, “Salts of methoxyphenyl-dimethylaminomethyl-cyclohexanol, medicaments containing these and process for their preparation” (Grünenthal GmbH, priority 1986, dated 1988).
